Results: patent US10597388B2, “Pyridazinone herbicides” (FMC CORPORATION, priority 2014, dated 2020)

Legend:
Type in all cases: in vivo
[1] = system: corn (Zea mays); assay: Test A greenhouse herbicide test, pre- and postemergence; conditions: Postemergence
In short: (§1)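 Seeds sown in loam–sand blend got a preemergence directed soil spray of compound in non-phytotoxic solvent with surfactant. Postemergence treatment was given at 2–10 cm, one- to two-leaf stage. After ~10 d in greenhouse, injury was rated visually vs untreated controls, 0 (no effect) to 100 (complete control).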

[2] = system: foxtail, giant (giant foxtail, Setaria faberii); assay: as above
In short: as §1

[3] = system: ryegrass, Italian (Italian ryegrass, Lolium multiflorum); assay: as above
In short: as §1

[4] = system: wheat (Triticum aestivum); assay: as above; conditions: Postemergence
In short: as §1

[5] = system: blackgrass (Alopecurus myosuroides); assay: Test C greenhouse herbicide test, pre- and postemergence
In short: (§2)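 Two application timings: at sowing into a soil/sand blend, and on 2–18 cm seedlings in peat-vermiculite potting mix. A non-phytotoxic, surfactant-containing solvent carried the compounds. Plants were compared with controls and rated visually on 0–100 after 13–15 d.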

[6] = system: corn (Zea mays); assay: as above
In short: as §2

[7] = system: nutsedge, yellow (yellow nutsedge, Cyperus esculentus); assay: as above
In short: as §2

[8] = system: pigweed (Amaranthus retroflexus); assay: as above
In short: as §2

[9] = system: soybean (Glycine max); assay: as above
In short: as §2

[10] = system: velvetleaf (Abutilon theophrasti); assay: as above
In short: as §2

[11] = system: waterhemp (common waterhemp, Amaranthus rudis); assay: as above
In short: as §2

[12] = 125 g ai/ha, 0 to 100 scale where 0 is no effect and 100 is complete control
[13] = 500 g ai/ha, visual rating after approx. 10 d, 0 to 100 scale (0 no effect, 100 complete control)
[14] = Postemergence, 125 g ai/ha, 0 to 100 scale where 0 is no effect and 100 is complete control
[15] = Postemergence, 500 g ai/ha, visual rating after approx. 10 d, 0 to 100 scale (0 no effect, 100 complete control)
[16] = Preemergence, 125 g ai/ha, 0 to 100 scale where 0 is no effect and 100 is complete control
[17] = Preemergence, 500 g ai/ha, 0 to 100 scale where 0 is no effect and 100 is complete control
[18] = 4 g ai/ha, preemergence, visual rating, scale 0 to 100 (0 no effect, 100 complete control), 13 to 15 d
[19] = Postemergence, 4 g ai/ha, scale 0 to 100 (0 no effect, 100 complete control)
[20] = Postemergence, 8 g ai/ha, scale 0 to 100 (0 no effect, 100 complete control)
[21] = Postemergence, 16 g ai/ha, scale 0 to 100 (0 no effect, 100 complete control)
[22] = Postemergence, 31 g ai/ha, scale 0 to 100 (0 no effect, 100 complete control)
[23] = Preemergence, 8 g ai/ha, scale 0 to 100, 0 is no effect, 100 is complete control
[24] = Preemergence, 16 g ai/ha, scale 0 to 100, 0 is no effect, 100 is complete control
[25] = Preemergence, 31 g ai/ha, scale 0 to 100, 0 is no effect, 100 is complete control
[26] = Postemergence, 125 g ai/ha, scale 0 to 100, 0 is no effect, 100 is complete control
[27] = Postemergence, 250 g ai/ha, scale 0 to 100, 0 no effect, 100 complete control, 13 to 15 d
[28] = Preemergence, 62 g ai/ha, scale 0 to 100, 0 is no effect, 100 is complete control
[29] = Preemergence, 125 g ai/ha, scale 0 to 100, 0 is no effect, 100 is complete control
[30] = Preemergence, 250 g ai/ha, scale 0 to 100, 0 no effect, 100 complete control
[31] = postemergence, 62 g ai/ha, scale 0 to 100, 0 no effect, 100 complete control

In the case of `Cc1ccc2ccc(Cl)cc2c1-c1c(O)c(C)nn(C)c1=O` [Compound 144], the “Plant response rating, Corn” value [1, 12] is reported as 60, the “Plant response rating, Corn” value [1, 13] is reported as 90 and the “Plant response rating, Foxtail, Giant” value [2, 14] is reported as 100. For the same compound, the “Plant response rating, Foxtail, Giant” value [2, 15] was 100, the “Foxtail, Giant plant response rating” value [2, 16] was 100 and the “Plant response rating, Foxtail, Giant” value [2, 17] was 100. The “Plant response rating, Ryegrass, Italian” value [3, 14] was 100, the “Plant response rating, Ryegrass, Italian” value [3, 15] was 100 and the “Plant response rating, Ryegrass, Italian” value [3, 17] was 100. For the same compound, the “Plant response rating, Wheat” value [4, 12] was 90, the “Plant response rating, Wheat” value [4, 13] was 100 and the “Plant response rating, Blackgrass” value [5, 18] was 30. For the same compound, the “Plant response rating, Blackgrass” value [5, 19] was 30, the “Plant response rating, Blackgrass” value [5, 20] was 30 and the “Plant response rating, Blackgrass” value [5, 21] was 20. For the same compound, the “Plant response rating, Blackgrass” value [5, 22] was 35, the “Plant response rating, Blackgrass” value [5, 23] was 55 and the “Plant response rating, Blackgrass” value [5, 24] was 70. The “Plant response rating, Blackgrass” value [5, 25] was 90, the “Plant response rating, Corn” value [6, 18] was 0 and the “Plant response rating, Corn” value [6, 19] was 0. The “Plant response rating, Corn” value [6, 20] was 0, the “Plant response rating, Corn” value [6, 21] was 5 and the “Plant response rating, Corn” value [6, 22] was 30. The “Plant response rating, Corn” value [6, 23] was 0, the “Plant response rating, Corn” value [6, 24] was 0 and the “Plant response rating, Corn” value [6, 25] was 0. For the same compound, the “Plant response rating, Nutsedge, Yellow” value [7, 18] was 5, the “Nutsedge, Yellow plant response rating” value [7, 20] was 10 and the “Plant response rating, Nutsedge, Yellow” value [7, 20] was 60. The “Plant response rating, Nutsedge, Yellow” value [7, 21] was 60, the “Plant response rating, Nutsedge, Yellow” value [7, 22] was 75 and the “Plant response rating, Nutsedge, Yellow” value [7, 24] was 25. The “Plant response rating, Nutsedge, Yellow” value [7, 25] was 40, the “Plant response rating, Pigweed” value [8, 18] was 75 and the “Pigweed plant response rating” value [8, 20] was 80. For the same compound, the “Plant response rating, Pigweed” value [8, 20] was 85, the “Plant response rating, Pigweed” value [8, 21] was 85 and the “Plant response rating, Pigweed” value [8, 22] was 90. The “Plant response rating, Pigweed” value [8, 24] was 100, the “Plant response rating, Pigweed” value [8, 25] was 100 and the “Plant response rating, Soybean” value [9, 18] was 10. The “Plant response rating, Soybean” value [9, 20] was 40, the “Soybean plant response rating” value [9, 20] was 45 and the “Plant response rating, Soybean” value [9, 21] was 25. For the same compound, the “Plant response rating, Soybean” value [9, 22] was 25, the “Plant response rating, Soybean” value [9, 24] was 0 and the “Plant response rating, Soybean” value [9, 25] was 5. The “Plant response rating, Velvetleaf” value [10, 18] was 25, the “Plant response rating, Velvetleaf” value [10, 20] was 70 and the “Velvetleaf plant response rating” value [10, 20] was 50. The “Plant response rating, Velvetleaf” value [10, 21] was 90, the “Plant response rating, Velvetleaf” value [10, 22] was 85 and the “Plant response rating, Velvetleaf” value [10, 24] was 85. The “Plant response rating, Velvetleaf” value [10, 25] was 90, the “Plant response rating, Waterhemp” value [11, 18] was 80 and the “Plant response rating, Waterhemp” value [11, 20] was 90. For the same compound, the “Waterhemp plant response rating” value [11, 20] was 90, the “Plant response rating, Waterhemp” value [11, 21] was 90 and the “Plant response rating, Waterhemp” value [11, 22] was 95. For the same compound, the “Plant response rating, Waterhemp” value [11, 24] was 100 and the “Plant response rating, Waterhemp” value [11, 25] was 100.
In the case of `CCCC(=O)Oc1c(C)nn(C)c(=O)c1-c1c(C)sc2ccc(C)cc12` [Compound 105], the “Plant response rating, Corn” value [1, 12] is reported as 0, the “Plant response rating, Corn” value [1, 13] is reported as 30 and the “Plant response rating, Foxtail, Giant” value [2, 14] is reported as 70. The “Plant response rating, Foxtail, Giant” value [2, 15] was 90, the “Foxtail, Giant plant response rating” value [2, 16] was 90 and the “Plant response rating, Foxtail, Giant” value [2, 17] was 100. The “Plant response rating, Ryegrass, Italian” value [3, 14] was 100, the “Plant response rating, Ryegrass, Italian” value [3, 15] was 100 and the “Ryegrass, Italian plant response rating” value [3, 16] was 100. For the same compound, the “Plant response rating, Ryegrass, Italian” value [3, 17] was 100, the “Plant response rating, Wheat” value [4, 12] was 0 and the “Plant response rating, Wheat” value [4, 13] was 20. The “Plant response rating, Blackgrass” value [5, 22] was 15, the “Plant response rating, Blackgrass” value [5, 26] was 50 and the “Plant response rating, Blackgrass” value [5, 27] was 60. The “Plant response rating, Blackgrass” value [5, 25] was 20, the “Plant response rating, Blackgrass” value [5, 28] was 50 and the “Plant response rating, Blackgrass” value [5, 29] was 55. For the same compound, the “Blackgrass plant response rating” value [5, 30] was 90, the “Blackgrass plant response rating” value [5, 31] was 40 and the “Plant response rating, Corn” value [6, 22] was 10. For the same compound, the “Plant response rating, Corn” value [6, 26] was 30, the “Plant response rating, Corn” value [6, 27] was 30 and the “Plant response rating, Corn” value [6, 25] was 0. For the same compound, the “Plant response rating, Corn” value [6, 28] was 0, the “Plant response rating, Corn” value [6, 29] was 5 and the “Corn plant response rating” value [6, 30] was 25. For the same compound, the “Corn plant response rating” value [6, 31] was 15, the “Plant response rating, Nutsedge, Yellow” value [7, 22] was 55 and the “Plant response rating, Nutsedge, Yellow” value [7, 26] was 75. The “Plant response rating, Nutsedge, Yellow” value [7, 27] was 90, the “Plant response rating, Nutsedge, Yellow” value [7, 25] was 40 and the “Plant response rating, Nutsedge, Yellow” value [7, 28] was 45. The “Plant response rating, Nutsedge, Yellow” value [7, 29] was 40, the “Nutsedge, Yellow plant response rating” value [7, 30] was 85 and the “Plant response rating, Pigweed” value [8, 22] was 85. The “Plant response rating, Pigweed” value [8, 26] was 100, the “Plant response rating, Pigweed” value [8, 27] was 98 and the “Plant response rating, Pigweed” value [8, 25] was 98. The “Plant response rating, Pigweed” value [8, 28] was 100, the “Plant response rating, Pigweed” value [8, 29] was 100 and the “Pigweed plant response rating” value [8, 30] was 100. For the same compound, the “Plant response rating, Soybean” value [9, 22] was 5, the “Plant response rating, Soybean” value [9, 26] was 10 and the “Plant response rating, Soybean” value [9, 27] was 40. For the same compound, the “Plant response rating, Soybean” value [9, 25] was 0, the “Plant response rating, Soybean” value [9, 28] was 0 and the “Plant response rating, Soybean” value [9, 29] was 0. For the same compound, the “Soybean plant response rating” value [9, 30] was 0, the “Plant response rating, Velvetleaf” value [10, 22] was 75 and the “Plant response rating, Velvetleaf” value [10, 26] was 90. For the same compound, the “Plant response rating, Velvetleaf” value [10, 27] was 100, the “Plant response rating, Velvetleaf” value [10, 25] was 60 and the “Plant response rating, Velvetleaf” value [10, 28] was 85. For the same compound, the “Plant response rating, Velvetleaf” value [10, 29] was 90, the “Velvetleaf plant response rating” value [10, 30] was 95 and the “Plant response rating, Waterhemp” value [11, 22] was 80. The “Plant response rating, Waterhemp” value [11, 26] was 100, the “Plant response rating, Waterhemp” value [11, 27] was 98 and the “Plant response rating, Waterhemp” value [11, 25] was 90. For the same compound, the “Plant response rating, Waterhemp” value [11, 28] was 95, the “Plant response rating, Waterhemp” value [11, 29] was 100 and the “Waterhemp plant response rating” value [11, 30] was 100.
